The subject of test [1] is Lewis Lung Carcinoma (3LL) Cell Line, subline H-59. The test is described as follows: XTT cytotoxicity assay, Lewis Lung Carcinoma 3LL (H-59) cells. Type of test: cell-based. The settings on record: Mus musculus, read-out: IC50, doxorubicin (concentration producing 50% inhibition of cell growth). The protocol:
A highly metastatic clonal Lewis Lung Carcinoma cell subline H-59 (3LL) was used to evaluate cytotoxic activity of Prep. C and compare it with that of doxorubicin. To this end, the cells were suspended in RPMI 1640 medium supplemented with 10% fetal calf serum, and plated at 2000-3000 cells/well into 96-well microtiter plates. Prep. C in which doxorubicin final concentrations varied from 1 to 10,000 ng/ml was added to the cells and incubated for 2 hours at 37° C. and 5% CO2. The cells were then washed three times with RPMI 1640 and cultured for 4 days. Drug cytotoxicity was determined by a standard XTT assay. To this end, sterile 1 mg/ml XTT solution in RPMI 1640 containing 5 μl/ml of 1.54 μg/ml phenazine methasulfate solution in sterile PBS was added to the cells (100 μl/well) and incubated for 4 to 16 hours at 37° C. and 5% CO2. The absorbance at λ420 was determined using a microplate reader. All the experiments were carried out in triplicate. SEM values were less than 10% (P<0.05). the concentrations of free doxorubicin and doxorubicin in Prep.

Test [2] deals with Lewis Lung Carcinoma (3LL-H59). The test is described as follows: Metastasis development after i.v. inoculation of 3LL-H59 cells. It is filed as in vivo, Female C57BL/6 mice. The conditions noted are these: Dox 5.0 mg/kg, L61 0.25% w/v, PEG8000 1% w/v, Days 1, 4, 7, 10 animals per group.
Description: A highly metastatic clonal subline H59 of Lewis Lung, Carcinoma (3LL-H59) was used as a model. […] These cells were cultured in D-MEM supplemented with 10% FCS at 37° C. in a humidified atmosphere with 5% CO2. After 7 to 10 passes in culture, the cells in their logarithmic growth phase were harvested with trypsin for the following experiments.
Animals. Female C57BL/6 mice were obtained from Charles River Canada Inc. (St. Constant, Quebec, Canada) and used at 6 to 7 weeks of age. Animals were grouped five per cage with air filter cover under a light (12-h light/dark cycle, light on at 06h00) and temperature-controlled environment (22 ±1° C.). All manipulations of animals were performed under a sterilized laminar. The animals had ad libitum access to Purina Mouse Chow (Pro Lab PMH 4018, Trademark of Agway, Syracuse, N.Y.) and water. […]
At Day 16 after tumor inoculation, the animals were sacrificed and subjected to routine metastasis inspection. All organs were routinely screened, although metastatic formations were normally detected only in the lung. […] The data are expressed as means±SEM for the number of metastatic sites and as the percentage of the animals having metastasis for the incidence of metastasis development. Statistical significance was calculated according to the multiple range test of Duncan-Kramer. […]

In brackets after ≈: the same amount, converted by molar mass.

In the case of `COc1cccc2c1C(=O)c1c(O)c3c(c(O)c1C2=O)C[C@@](O)(C(=O)CO)C[C@@H]3O[C@H]1C[C@H](N)[C@H](O)[C@H](C)O1` [Doxorubicin, doxorubicin], the IC50 in test [1] is 0.11 µg/mL (≈ 0.202 µM). The “Incidence (animals having metastasis)” value in test [2] (Day 16) came out at 100%. Also, the “Number of metast. sites on lung periphery ±SEM” value in test [2] (counted Day 16) is 8.90 ± 2.56.

The values are drawn from patent US6060518A, “Polymer compositions for chemotherapy and methods of treatment using the same” (Supratek Pharma Inc., priority 1996, dated 2000).
